Data reported in the supplement of paper PMC10307832.

Columns and labels:
Assay in all cases: relative viability (nuclei count vs DMSO), 5 days (fraction); higher = more cells survive
[1] = test system: HARA
Procedure, shortened: (§1)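 Lung cancer cell lines in 1536-well plates were dosed by pin tool the day after seeding, either with one drug alone or with a fixed anchor-drug dose plus five library-drug doses (not always all listed) in √10 steps. After 5 days, cells were fixed and their nuclei stained in one step (final 0.05% Triton X-100, 1% formaldehyde, 1 ug/ml Hoechst), then counted on 4× images. Relative viability is the nuclei count in treated wells divided by that in vehicle wells. Values are medians of duplicate plates.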

[2] = test system: LC-2-ad
Procedure, shortened: as §1

[3] = test system: NCI-H522
Procedure, shortened: as §1

[4] = test system: LXF-289
Procedure, shortened: as §1

[5] = test system: PC-14
Procedure, shortened: as §1

[6] = test system: HCC-366
Procedure, shortened: as §1

[7] = test system: NCI-H2126
Procedure, shortened: as §1

[8] = test system: HCC-15
Procedure, shortened: as §1

[9] = test system: NCI-H2009
Procedure, shortened: as §1

[10] = test system: COR-L23
Procedure, shortened: as §1

[11] = test system: HCC-44
Procedure, shortened: as §1

[12] = test system: HCC-827
Procedure, shortened: as §1

[13] = test system: LU99A
Procedure, shortened: as §1

[14] = test system: NCI-H2087
Procedure, shortened: as §1

[15] = test system: BEN
Procedure, shortened: as §1

[16] = test system: CAL-12T
Procedure, shortened: as §1

[17] = test system: NCI-H727
Procedure, shortened: as §1

[18] = test system: HOP-62
Procedure, shortened: as §1

[19] = test system: SK-MES-1
Procedure, shortened: as §1

[20] = test system: PC-3 [JPC-3]
Procedure, shortened: as §1

[21] = test system: NCI-H1993
Procedure, shortened: as §1

[22] = test system: COR-L 105
Procedure, shortened: as §1

[23] = test system: NCI-H2170
Procedure, shortened: as §1

[24] = test system: LCLC-97TM1
Procedure, shortened: as §1

## CCCCCCCCCCCC1=C(O)C(=O)C=C(O)C1=O [Embelin] + CC(=O)Nc1cccc(-n2c(=O)n(C3CC3)c(=O)c3c(Nc4ccc(I)cc4F)n(C)c(=O)c(C)c32)c1 [Trametinib] (partner 0.02 µM)
[1]; first compound 0.08 µM
  relative viability: 0.785
[1]; first compound 0.8 µM
  relative viability: 1.05
[1]; first compound 2.53 µM
  relative viability: 0.637
[1]; first compound 8 µM
  relative viability: 0.536
[2]; first compound 0.08 µM
  relative viability: 0.891
[2]; first compound 0.8 µM
  relative viability: 0.98
[2]; first compound 2.53 µM
  relative viability: 0.966
[2]; first compound 8 µM
  relative viability: 1.02
[3]; first compound 0.08 µM
  relative viability: 0.637
[3]; first compound 0.8 µM
  relative viability: 0.817
[3]; first compound 2.53 µM
  relative viability: 0.719
[3]; first compound 8 µM
  relative viability: 0.765
[4]; first compound 0.08 µM
  relative viability: 0.715
[4]; first compound 0.8 µM
  relative viability: 0.737
[4]; first compound 2.53 µM
  relative viability: 0.722
[4]; first compound 8 µM
  relative viability: 0.676
[5]; first compound 0.08 µM
  relative viability: 0.728
[5]; first compound 0.8 µM
  relative viability: 0.839
[5]; first compound 2.53 µM
  relative viability: 0.982
[5]; first compound 8 µM
  relative viability: 0.724
[6]; first compound 0.08 µM
  relative viability: 0.385
[6]; first compound 0.8 µM
  relative viability: 0.431
[6]; first compound 2.53 µM
  relative viability: 0.446
[6]; first compound 8 µM
  relative viability: 0.326
[7]; first compound 0.08 µM
  relative viability: 0.495
[7]; first compound 0.8 µM
  relative viability: 0.548
[7]; first compound 2.53 µM
  relative viability: 0.553
[7]; first compound 8 µM
  relative viability: 0.546
[8]; first compound 0.08 µM
  relative viability: 0.366
[8]; first compound 0.8 µM
  relative viability: 0.435
[8]; first compound 2.53 µM
  relative viability: 0.345
[8]; first compound 8 µM
  relative viability: 0.383
[9]; first compound 0.08 µM
  relative viability: 0.335
[9]; first compound 0.8 µM
  relative viability: 0.306
[9]; first compound 2.53 µM
  relative viability: 0.268
[9]; first compound 8 µM
  relative viability: 0.296
[10]; first compound 0.08 µM
  relative viability: 0.562
[10]; first compound 0.8 µM
  relative viability: 0.689
[10]; first compound 2.53 µM
  relative viability: 0.653
[10]; first compound 8 µM
  relative viability: 0.608
[11]; first compound 0.08 µM
  relative viability: 1.04
[11]; first compound 0.8 µM
  relative viability: 1.08
[11]; first compound 2.53 µM
  relative viability: 1.1
[11]; first compound 8 µM
  relative viability: 1.08
[12]; first compound 0.08 µM
  relative viability: 0.535
[12]; first compound 0.8 µM
  relative viability: 0.588
[12]; first compound 2.53 µM
  relative viability: 0.506
[12]; first compound 8 µM
  relative viability: 0.487
[13]; first compound 0.08 µM
  relative viability: 0.631
[13]; first compound 0.8 µM
  relative viability: 0.596
[13]; first compound 2.53 µM
  relative viability: 0.561
[13]; first compound 8 µM
  relative viability: 0.526
[14]; first compound 0.08 µM
  relative viability: 0.147
[14]; first compound 0.8 µM
  relative viability: 0.225
[14]; first compound 2.53 µM
  relative viability: 0.233
[14]; first compound 8 µM
  relative viability: 0.182
[15]; first compound 0.08 µM
  relative viability: 1.11
[15]; first compound 0.8 µM
  relative viability: 1.16
[15]; first compound 2.53 µM
  relative viability: 0.966
[15]; first compound 8 µM
  relative viability: 0.865
[16]; first compound 0.08 µM
  relative viability: 0.376
[16]; first compound 0.8 µM
  relative viability: 0.386
[16]; first compound 2.53 µM
  relative viability: 0.283
[16]; first compound 8 µM
  relative viability: 0.295
[17]; first compound 0.08 µM
  relative viability: 0.4
[17]; first compound 0.8 µM
  relative viability: 0.394
[17]; first compound 2.53 µM
  relative viability: 0.39
[17]; first compound 8 µM
  relative viability: 0.423
[18]; first compound 0.08 µM
  relative viability: 0.402
[18]; first compound 0.8 µM
  relative viability: 0.472
[18]; first compound 2.53 µM
  relative viability: 0.476
[18]; first compound 8 µM
  relative viability: 0.379
[19]; first compound 0.08 µM
  relative viability: 0.599
[19]; first compound 0.8 µM
  relative viability: 0.588
[19]; first compound 2.53 µM
  relative viability: 0.591
[19]; first compound 8 µM
  relative viability: 0.518
[20]; first compound 0.08 µM
  relative viability: 0.684
[20]; first compound 0.8 µM
  relative viability: 0.75
[20]; first compound 2.53 µM
  relative viability: 0.788
[20]; first compound 8 µM
  relative viability: 0.614
[21]; first compound 0.08 µM
  relative viability: 0.513
[21]; first compound 0.8 µM
  relative viability: 0.512
[21]; first compound 2.53 µM
  relative viability: 0.584
[21]; first compound 8 µM
  relative viability: 0.498
[22]; first compound 0.08 µM
  relative viability: 0.462
[22]; first compound 0.8 µM
  relative viability: 0.458
[22]; first compound 2.53 µM
  relative viability: 0.464
[22]; first compound 8 µM
  relative viability: 0.445
[23]; first compound 0.08 µM
  relative viability: 0.946
[23]; first compound 0.8 µM
  relative viability: 0.877
[23]; first compound 2.53 µM
  relative viability: 1.11
[23]; first compound 8 µM
  relative viability: 0.9
[24]; first compound 0.08 µM
  relative viability: 0.201
[24]; first compound 0.8 µM
  relative viability: 0.18
[24]; first compound 2.53 µM
  relative viability: 0.232
[24]; first compound 8 µM
  relative viability: 0.184
